Results taken from patent US5763457A, “Method for treating anxiety” (Eli Lilly and Company, priority 1996, dated 1998).
Like-named read-outs stand apart in the source and are kept apart here.

Experiments:
[1] = target: muscarinic acetylcholine receptors; assay: inhibition of specific binding of ^3 H-Oxotremorine-M (^3 H-Oxo); settings: ^3 H-Oxotremorine 1.0 nM, rat cortex, 30 min, 25° C.
Excerpt: The pharmacological properties of the compounds of the invention can be illustrated by determining their capability to inhibit the specific binding of ^3 H-Oxotremorine-M (^3 H-Oxo). Birdsdall N. J. M., Hulme E. C., and Burgen A. S. V. (1980). "The Character of Muscarinic Receptors in Different Regions of the Rat Brain". Proc. Roy. Soc. London (Series B) 207,1.
^3 H-Oxo labels muscarinic receptor in the CNS (with a preference for agonist domains of the receptors). Three different sites are labeled by ^3 H-Oxo. […] Using the present experimental conditions only the high and medium affinity sites are determined.
The inhibitory effects of compounds on ^3 H-oxo binding reflects the affinity for muscarinic acetylcholine receptors.
(§1) All preparations are performed at 0°-4° C. unless otherwise indicated. Fresh cortex (0.1-1 g) from male Wistar rats (150-250 g) is homogenized for 5-10 s in 10 mL 20 nM Hepes pH: 7.4, with an Ultra-Turrax homogenizer. The homogenizer is rinsed with 10 mL of buffer and the combined suspension centrifuged for 15 min. at 40,000×g. The pellet is washed three times with buffer. In each step the pellet is homogenized as before in 2×10 mL of buffer and centrifuged for 10 min. at 40,000×g.
The final pellet is homogenized in […] Hepes pH: 7.4 (100 mL per g of original tissue) and used for binding assay. Aliquots of 0.5 mL is added 25 μL of test solution and 25 μL of ^3 H-Oxotremorine (1.0 nM, final concentration) mixed and incubated for 30 min. at 25° C. Non-specific binding is determined in triplicate using arecoline (1 μg/mL, final concentration) as the test substance. After incubation samples are added 5 mL of ice-cold buffer and poured directly onto Whatman GF/C glass fiber filters under suction and immediately washed 2 times with 5 mL of ice-cold buffer. The amount of radioactivity on the filters are determined by conventional liquid scintillation counting. Specific binding is total binding minus non specific binding.
Test substances are dissolved in 10 mL water (if necessary heated on a steam-bath for less than 5 min.) at a concentration of 2.2 mg/mL. 25-75% inhibition of specific binding must be obtained before calculation of IC50. The test value will be given as IC50 (the concentration (nM) of the test substance which inhibits the specific binding of ^3 H-oxo by 50%). IC50 =(applied test substance concentration) x([…])nM where Co is specific binding in control assays and Cx is the specific binding in the test assay. (The calculations assume normal mass-action kinetics).

[2] = target: T1, muscarinic receptors (M1 -site, pirenzepine sensitive site) (Rattus norvegicus, UniProt P08482); assay: inhibition of ^3 HPRZ (pirenzepine, [N-methyl-^3 H]) binding to rat cerebral cortex membranes; settings: ^3 HPRZ 1.0 nM, 60 min, 20° C.
T1 construct: from tissue; host or cells: fresh cerebral cortex membranes, male Wistar rat
T1 sequence (P08482 1-460): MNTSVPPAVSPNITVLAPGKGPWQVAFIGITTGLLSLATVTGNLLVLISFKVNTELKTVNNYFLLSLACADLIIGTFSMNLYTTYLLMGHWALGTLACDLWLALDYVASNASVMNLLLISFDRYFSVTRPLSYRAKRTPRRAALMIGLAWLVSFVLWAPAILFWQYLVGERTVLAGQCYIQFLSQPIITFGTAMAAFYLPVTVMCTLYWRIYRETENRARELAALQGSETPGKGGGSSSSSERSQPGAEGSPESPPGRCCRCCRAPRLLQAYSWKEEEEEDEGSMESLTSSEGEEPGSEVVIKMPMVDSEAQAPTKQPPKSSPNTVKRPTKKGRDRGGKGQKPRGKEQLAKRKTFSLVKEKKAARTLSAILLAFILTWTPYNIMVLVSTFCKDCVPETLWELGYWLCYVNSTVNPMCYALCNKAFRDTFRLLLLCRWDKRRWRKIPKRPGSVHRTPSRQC
Method: Furthermore the pharmacological properties of the compounds of the invention can also be illustrated by determining their capability to inhibit ^3 HPRZ (pirenzepine, [N-methyl-^3 H]) binding to rat cerebral cortex membranes.
Pirenzepine binds selectively to subtype of muscarinic receptors. Historically the type is named the M1 -site, whereas pirenzepine sensitive site would be more appropriate.
as §1, with “(0.1-1 9)” for “(0.1-1 g)”, “rats (150-200” for “rats (150-250”, “20 mM” for “20 nM”, “with 2×10” for “with 10”, “in 3×10” for “in 2×10”
The final pellet is homogenized in 20 mM Hepes pH: 7.4 (100 mL per g of original tissue) and used for binding assay. Aliquots of 0.5 mL is added 20 μL of test solution and 25 μL of ^3 HPRZ (1.0 nM, final conc.), mixed and incubated for 60 min. at 20° C. Non-specific binding is determined in triplicate using atropine (1.0 μg/mL, final conc.) as the test substance. After incubation samples are added 5 mL of ice-cold buffer and poured directly onto Whatman GF/C glass fiber filters under suction and immediately washed 2 times with 5 mL of ice-cold buffer. The amount of radioactivity on the filters are determined by conventional liquid scintillation counting. Specific binding is total binding minus non-specific binding.
Test substances are dissolved in 10 mL water, at a concentration of 0.22 mg/mL. 25-75% inhibition of specific binding must be obtained before calculation of IC50.
The test value will be given as IC50 (the concentration (nM) of the test substance which inhibits the specific binding of ^3 HPRZ by 50%). IC50 =(applied test substance concentration) x(Cx /Co -Cx)nM where Co is specific binding in control assays and Cx is the specific binding in the test assay. (The calculations assume normal mass-action kinetics).

5-HT1A receptor = settings: literature; cited from earlier work
dopamine receptors = settings: literature; cited from earlier work
[3] = target: muscarinic receptor in the CNS; settings: cited from earlier work
[4] = in vivo; cited from earlier work
M1 -sites = settings: cited from earlier work
M2 -sites = settings: cited from earlier work

| SMILES | IC50 [2] | other results |
| --- | --- | --- |
| CCCCOc1nonc1OC1CN2CCC1CC2 (racemic) [Compound 1] | 56 nM | IC50 [1]: 81 nM |
| Clc1nccnc1OC1CN2CCC1CC2 (racemic) [Compound 2] | 253 nM | IC50 [1]: 374 nM |
| CCCCOc1nccnc1OC1CN2CCC1CC2 (racemic) [Compound 3] | 14.5 nM | IC50 [1]: 19.3 nM |
| CCCOc1nccnc1OC1CN2CCC1CC2 (racemic) [Compound 4] | 21 nM | IC50 [1]: 25 nM |
| CCCCCCOc1nccnc1OC1CN2CCC1CC2 (racemic) [Compound 5] | 32 nM | IC50 [1]: 40 nM |
| CCCCSc1nccnc1OC1CN2CCC1CC2 (racemic) [Compound 6] | 0.9 nM | IC50 [1]: 2.5 nM |
| CCCCCSc1nccnc1OC1CN2CCC1CC2 (racemic) [Compound 7] | 6.7 nM |  |
| c1cnc(OC2CN3CCC2CC3)cn1 (racemic) [Compound 8] | > 1000 nM |  |
| CCCCCOc1nccnc1OC1CN2CCC1CC2 (racemic) [Compound 9] | 30 nM |  |
| COc1nccnc1OC1CN2CCC1CC2 (racemic) [Compound 10] | 223 nM |  |
| CCOc1nccnc1OC1CN2CCC1CC2 (racemic) [Compound 11] | 53 nM |  |
| CCCCCCSc1nccnc1OC1CN2CCC1CC2 (racemic) [Compound 12] | 13 nM |  |
| CSc1nccnc1OC1CN2CCC1CC2 (racemic) [Compound 13] | 42 nM |  |
| CCSc1nccnc1OC1CN2CCC1CC2 (racemic) [Compound 14] | 21 nM |  |
| CCCSc1nccnc1OC1CN2CCC1CC2 (racemic) [Compound 15] | 13 nM |  |
| CCCCCCCSc1nccnc1OC1CN2CCC1CC2 (racemic) [Compound 16] | 23 nM |  |
| Clc1nccnc1O[C@H]1CN2CCC[C@@H]1C2 (relative stereo) [Compound 19] | 108 nM |  |
| Cc1nccnc1O[C@H]1CN2CCC[C@@H]1C2 (relative stereo) [Compound 20] | 246 nM |  |
| Clc1cncc(O[C@H]2CN3CCC[C@@H]2C3)n1 (relative stereo) [Compound 22] | 52 nM |  |
| CCCCOc1nccnc1O[C@H]1CN2CCC[C@@H]1C2 (relative stereo) [Compound 23] | 2.7 nM |  |
| CCCCSc1nccnc1O[C@H]1CN2CCC[C@@H]1C2 (relative stereo) [Compound 24] | 0.54 nM |  |
| CCCSc1nccnc1O[C@H]1CN2CCC[C@@H]1C2 (relative stereo) [Compound 29] | 0.68 nM |  |
| CCCCCSc1nccnc1O[C@H]1CN2CCC[C@@H]1C2 (relative stereo) [Compound 30] | 0.82 nM |  |
| CC(C)CSc1nccnc1O[C@H]1CN2CCC[C@@H]1C2 (relative stereo) [Compound 31] | 1.7 nM |  |

| SMILES | IC50 [2] | other results |
| --- | --- | --- |
| CCSc1nccnc1O[C@H]1CN2CCC[C@@H]1C2 (relative stereo) [Compound 32] | 4 nM |  |
| FC(F)(F)CSc1nccnc1O[C@H]1CN2CCC[C@@H]1C2 (relative stereo) [Compound 33] | 0.7 nM |  |
| C/C=C/CSc1nccnc1O[C@H]1CN2CCC[C@@H]1C2 (relative stereo) [Compound 34] | 0.66 nM |  |
| FC(F)(F)CCCSc1nccnc1O[C@H]1CN2CCC[C@@H]1C2 (relative stereo) [Compound 35] | 0.54 nM |  |
| C=CCSc1nccnc1O[C@H]1CN2CCC[C@@H]1C2 (relative stereo) [Compound 36] | 5.8 nM |  |
| CC(C)CCSc1nccnc1O[C@H]1CN2CCC[C@@H]1C2 (relative stereo) [Compound 37] | 0.76 nM |  |
| FC(F)(F)Oc1ccc(CSc2nccnc2O[C@H]2CN3CCC[C@@H]2C3)cc1 (relative stereo) [Compound 38] | 3.3 nM |  |
| CCCSc1cncc(O[C@H]2CN3CCC[C@@H]2C3)n1 (relative stereo) [Compound 39] | 80 nM |  |
| FC(F)(F)CSc1cncc(O[C@H]2CN3CCC[C@@H]2C3)n1 (relative stereo) [Compound 40] | 17 nM |  |
| COCCSc1nccnc1O[C@H]1CN2CCC[C@@H]1C2 (relative stereo) [Compound 41] | 1.6 nM |  |
| C(=Cc1ccccc1)CSc1nccnc1O[C@H]1CN2CCC[C@@H]1C2 (relative stereo) [Compound 42] | 4.8 nM |  |
| CC(C)=CCCSc1nccnc1O[C@H]1CN2CCC[C@@H]1C2 (relative stereo) [Compound 43] | 2.2 nM |  |
| O=C1CC2(CCCC2)CC(=O)N1CCCCN1CCN(c2ncccn2)CC1 [Buspirone] |  | receptor interaction (5-HT1A receptor): interacts with reasonable potency only at the 5-HT1A and dopamine receptors; receptor interaction (dopamine receptors): interacts with reasonable potency only at the 5-HT1A and dopamine receptors |
| CCCCSc1nccnc1OCCN(C)C [Compound 17] | 4.5 nM |  |
| CCCCSc1nccnc1OCC[N+](C)(C)C [Compound 18] | 5.4 nM |  |
| c1cnc(O[C@H]2CN3CCC[C@@H]2C3)cn1 [Compound 21] | 123 nM |  |
| CN1[C@@H]2CC[C@H]1C[C@@H](Oc1cnccn1)C2 [Compound 25] | 680 nM |  |
| CN(C)CCOc1cnccn1 [Compound 26] | > 1000 nM |  |
| C[N+](C)(C)CCOc1cnccn1 [Compound 27] | > 1000 nM |  |
| CN1CCC[C@H]1COc1cnccn1 [Compound 28] | 5710 nM |  |
| C[N+](C)(C)CC#CCN1CCCC1=O [^3 H-Oxo, ^3 H-Oxotremorine-M] |  | Kd ([3]; first (high affinity) site): 1.8 nM; Kd ([3]; second (medium affinity) site): 20 nM; Kd ([3]; third site, not determined under present conditions, read-out: affinity): 3000 nM |
| CCCC(C)(COC(N)=O)COC(N)=O [meprobamate] |  | side effects [4]: numerous side effects such as potential for abuse and addiction or potentiation of the effects of ethanol |
| CN1CCN(CC(=O)N2c3ccccc3C(=O)Nc3cccnc32)CC1 [pirenzepine, pirenzepine, [N-methyl-^3 H]] |  | selectivity (M1 -sites): selective for M1 -sites; interaction with M2 -sites (M2 -sites): also interact with M2 -sites |
